Experimental data published in a melting point compilation (Tetko et al.).

SMILES	melting point
CN1C(=O)CNC(=O)c2ccccc21	175 to 177 °C
Cc1oncc1C(=O)Nc1cccc(C(=O)O)c1	245 to 247 °C
O=C(O)c1cc(S(=O)(=O)Nc2ccccc2F)c[nH]1	207 to 209 °C
COc1ccccc1-c1cc(N)n(-c2ccccc2)n1	119 to 121 °C
COc1cc(C(=O)O)cc([N+](=O)[O-])c1OC	193 to 195 °C
N#Cc1csc(C(=O)O)c1	224 to 226 °C
CC(Sc1ncccc1C(=O)O)C(=O)N1CCCC1 (stereo unspecified)	192 to 194 °C
Fc1ccc(-c2nnc3cc(Cl)ncn23)c(F)c1	170 to 172 °C
O=C(Nc1cnccn1)c1ccc(I)cc1	196 to 198 °C
O=C1CCc2c(OCc3ccccc3)cccc21	71 to 73 °C
CC(NCc1ccc(F)cc1)C(=O)O (stereo unspecified)	283 to 285 °C
COc1ncnc(Cl)c1N	70 to 72 °C
CCOC(=O)c1c(C)oc2cc3c(C(=O)OCC)c(C)oc3cc12	187 to 189 °C
CCOc1cc(C=O)ccc1OCCOc1ccc(F)cc1	85 to 87 °C
O=C(O)c1cc2ccccc2cc1I	215 to 217 °C
Cc1nn(-c2ccccc2)c(C)c1SCC(=O)O	148 to 150 °C
Cc1ccc(S(=O)(=O)Cl)cc1C	36 to 38 °C

SMILES	melting point
Cc1ccc(-n2c(N)nc3cc(Br)ccc32)cc1	194 to 196 °C
CCn1c(=O)c(=O)[nH]c2cc(C(=O)O)ccc21	270 to 285 °C
CC(C)(C)OC(=O)N1CC2CNCC2C1 (stereo unspecified)	29 to 31 °C
CCC(Nc1ccccc1)C(=O)O (stereo unspecified)	139 to 141 °C
CCC1CSC(Nc2ccc(Cl)c(Cl)c2)=N1 (stereo unspecified)	107 to 109 °C
NS(=O)(=O)Cc1cccnc1	154 to 156 °C
Cc1ccc(S(=O)(=O)NCc2ccco2)cc1C(=O)O	178 to 180 °C
O=C(c1ccc(Br)cc1)C1CCOCC1	99 to 101 °C
COc1ccc2c(-c3ccccc3)cc(Cl)nc2c1	100 to 102 °C
CSC=CC(=O)O	118 to 120 °C
CC1C=CC2C(=O)N(C)C(=O)C2C1C(=O)O (stereo unspecified)	172 to 174 °C
NS(=O)(=O)N1CCNCC1	164 to 166 °C
O=C1C=CC(=O)N1C1CCOCC1	169 to 171 °C
Cc1cc(-n2c(C)c[nH]c2=O)no1	134 to 136 °C
O=C(O)Cn1nc(-c2ccccc2)oc1=O	196 to 198 °C
Nc1nc(-c2cccc(-n3cnnn3)c2)cs1	184 to 186 °C
O=C(O)CCc1nnc[nH]1	127 to 129 °C

Second part, the molecule after the results:

melting point	SMILES
123 to 125 °C	CC(C(=O)O)N1C(=O)C2CC=CCC2C1=O (stereo unspecified)
205 to 207 °C	N#CC(=Cc1ccc2c(c1)OCO2)C(=O)O
51 to 53 °C	OCc1nnc(Cl)s1
153 to 155 °C	O=C(O)CC1c2ccccc2Oc2ccccc21
30 to 34 °C	CNCc1nc2ccccc2s1
58 to 60 °C	Cn1nccc1CO
127 to 129 °C	CCOc1ccc(OCc2ccc(C(=O)NN)cc2)cc1
179 to 181 °C	COC(=O)c1cc(=O)c2cc(Cl)ccc2[nH]1
205 to 207 °C	COc1ccc(Cn2ncc3cc(C(=O)O)cnc32)c(OC)c1
153 to 155 °C	CC(=O)N(C)c1ccc(S(N)(=O)=O)cc1
119 to 122 °C	Cn1c(C=O)nc2ccccc21
159 to 161 °C	O=C(O)c1csc(-c2ccccc2F)n1
175 to 182 °C	CC(C)NCc1nnc(-c2ccc([N+](=O)[O-])cc2)o1
117 to 119 °C	Cc1sc2ccccc2c1S(=O)(=O)Cl
96 to 98 °C	OCCn1nc(-c2ccccc2)cc1-c1ccccc1
275 to 277 °C	CC1CCc2c(sc3nc(S)n(Cc4ccco4)c(=O)c23)C1 (stereo unspecified)
131 to 133 °C	Cc1cc(N2CCCS2(=O)=O)ccc1Br
58 to 60 °C	COC(=O)c1ccc(C(F)(F)F)cc1N
177 to 179 °C	CN(C)C(=O)c1ccc(NC(=O)CCl)cc1
133 to 135 °C	CC(=CC(=O)O)c1ccccc1C(F)(F)F
132 to 134 °C	Cn1cc(C(=O)CBr)c2ccccc21
184 to 186 °C	O=C(O)c1cccc(-n2cccn2)n1
